In one data set the test system is Primary T cells. Nature of the data set: Antiproliferative activity (AP), mitotic index by flow cytometry. The class given is cell-based. The note with it: T-cell, read-out: AP50 (Inhibitory concentration 50% for antiproliferative capacity). As to the method: Primary T cells are cultured and exposed to different concentrations of the test compounds. Cell proliferation is analysed by measuring mitotic index (ie the number of cell divisions a population of cells undergoes) through flow cytometry based techniques. Mitotic index is expressed as percentage of untreated control. Inhibition of cell proliferation (AP) is then calculated (AP=100 minus % mitotic index compared to control, AP of control=0%). Inhibitory concentration 50% for antiproliferative capacity (AP50) is calculated.
(§1) In Tables 2, 3 and 4, ND means Not Determined.

Data set [1] relates to laboratory strain of HIV-1. Put plainly: Antiviral activity against HIV (AV), p24 in infected activated primary T cells. The class given is cell-based. As to conditions: for IC50: Human immunodeficiency virus 1, T-cell, read-out: AV50 (Inhibitory concentration 50% for antiviral activity); for antiviral and antiproliferative activity and cytotoxicity profile (in words): summary of AV, AP and cytotoxicity assays. On the procedure:
Activated primary T cells are infected with a laboratory strain of HIV-1, then cultured and exposed to different concentrations of the test compounds. HIV replication is analysed by measuring the viral protein p24 and expressed as percentage of untreated control. Inhibition of viral replication (AV) is then calculated (AV=100 minus the % p24 compared to control, AV of control=0%). Inhibitory concentration 50% for antiviral activity (AV50) is calculated.
as §1

Read-outs that look alike come from different tables or passages of the source.

Consider `COc1ccc(Nc2cc(-c3ccccc3OC)ncn2)cc1CNCc1ccccc1` [Example 1, N-(3-((Benzylamino)methyl)-4-methoxyphenyl)-6-(2-methoxyphenyl)pyrimidin-4-amine], for which, in the data set on Primary T cells, the IC50 amounted to 2500 nM.

For the compound `COc1ccccc1-c1cc(Nc2ccc(N3CCN(C)CC3)c(Cn3cnc4ccccc43)c2)ncn1` [Example 2, N-(3-((1H-Benzo[d]imidazol-1-yl)methyl)-4-(4-methylpiperazin-1-yl)phenyl)-6-(2-methoxyphenyl)pyrimidin-4-amine], the IC50 in the data set on Primary T cells (primary T cells, mitotic index) came out at 400 nM.

For `COc1ccc(Nc2cc(-c3ccccc3OC)ncn2)cc1CNS(C)(=O)=O` [Example 4, N-(2-Methoxy-5-(6-(2-methoxyphenyl)pyrimidin-4-ylamino)benzyl)methanesulfonamide], the IC50 with Primary T cells (primary T cells, mitotic index) was found to be 1500 nM.

With `COc1ccccc1-c1cc(Nc2ccc(Cl)c(C(=O)NN)c2)ncn1` [Example 7, 2-Chloro-5-(6-(2-methoxyphenyl)pyrimidin-4-ylamino)benzohydrazide], in the data set on Primary T cells (primary T cells, mitotic index), the IC50 is 4000 nM.

Take `COc1ccccc1-c1cc(Nc2ccc(OC)c([N+](=O)[O-])c2)ncn1` [Example 11, N-(4-Methoxy-3-nitrophenyl)-6-(2-methoxyphenyl)pyrimidin-4-amine]: the IC50 in the data set on Primary T cells (primary T cells, mitotic index) is more than 1500 nM.

On to `COc1ccccc1-c1cc(Nc2ccc(O)c([N+](=O)[O-])c2)ncn1` [Example 12, 4-(6-(2-methoxyphenyl)pyrimidin-4-ylamino)-2-nitrophenol], for which the IC50 with Primary T cells (primary T cells, mitotic index) is more than 1500 nM.

With `CCOC(=O)c1cc(Nc2cc(-c3ccccc3OC)ncn2)ccc1Cl` [Example 14, Ethyl 2-chloro-5-(6-(2-methoxyphenyl)pyrimidin-4-ylamino)benzoate], the IC50 in the data set with Primary T cells (primary T cells, mitotic index) was more than 500 nM.

Turning to `CCOc1ccccc1-c1cc(Nc2ccc(OC)c(N)c2)ncn1` [Example 62, N^1-[6-(2-Ethoxy-phenyl)-pyrimidin-4-yl]-4-methoxy-benzene-1,3-diamine], in data set [1], the IC50 was less than 80 nM; the “antiviral and antiproliferative activity and cytotoxicity profile (in words)” value is “good antiviral and antiproliferative activity and a good cytotoxicity profile”.

In the case of `COc1ccc(-c2cc(Nc3ccc(OC)c(N)c3)ncn2)cc1` [Example 66, 4-Methoxy-N^1-[6-(4-methoxy-phenyl)-pyrimidin-4-yl]-benzene-1,3-diamine], the IC50 in data set [1] was more than 10000 nM.

On to `COc1cccc(-c2cc(Nc3ccc(OC)c(N)c3)ncn2)c1` [Example 68, 4-Methoxy-N^1-[6-(3-methoxy-phenyl)-pyrimidin-4-yl]-benzene-1,3-diamine], for which, in data set [1], the IC50 was determined as 1000 nM.

As to `COc1ccc(Nc2cc(-c3ccccc3O)ncn2)cc1N` [Example 70, 2-[6-(3-Amino-4-methoxy-phenylamino)-pyrimidin-4-yl]-phenol], in data set [1], the IC50 is more than 10000 nM.

With `COc1ccc(Nc2cc(-c3ccccc3OCc3ccccc3)ncn2)cc1N` [Example 71, N^1-[6-(2-Benzyloxy-phenyl)-pyrimidin-4-yl]-4-methoxy-benzene-1,3-diamine], the IC50 in data set [1] worked out at 2000 nM.

For the compound `CCOc1cc(F)ccc1-c1cc(Nc2ccc(OC)c(N)c2)ncn1` [Example 73, N^1-[6-(2-Ethoxy-4-fluoro-phenyl)-pyrimidin-4-yl]-4-methoxy-benzene-1,3-diamine], in data set [1], the IC50 was 0.2 nM; the “antiviral and antiproliferative activity and cytotoxicity profile (in words)” value is “good antiviral and antiproliferative activity and a good cytotoxicity profile”.

For `COc1ccc(Nc2cc(-c3ccccc3Oc3ccccc3)ncn2)cc1N` [Example 77, 4-Methoxy-N^1-[6-(2-phenoxy-phenyl)-pyrimidin-4-yl]-benzene-1,3-diamine], in data set [1], the IC50 worked out at 10000 nM.

Regarding `COc1ccc(Nc2cc(-c3cccc(F)c3OC)ncn2)cc1N` [Example 81, N^1-[6-(3-Fluoro-2-methoxy-phenyl)-pyrimidin-4-yl]-4-methoxy-benzene-1,3-diamine], the IC50 in data set [1] was found to be 60 nM.

In the case of `COc1ccc(Nc2cc(-c3cc(F)c(F)cc3OC)ncn2)cc1N` [Example 83, N^1-[6-(4,5-Difluoro-2-methoxy-phenyl)-pyrimidin-4-yl]-4-methoxy-benzene-1,3-diamine], in data set [1], the IC50 was 7 nM; the “antiviral and antiproliferative activity and cytotoxicity profile (in words)” value is “good antiviral and antiproliferative activity and a good cytotoxicity profile”.

In the case of `COc1ccc(Nc2cc(-c3ccc(F)cc3OC(C)C)ncn2)cc1N` [Example 86, N^1-[6-(4-Fluoro-2-isopropoxy-phenyl)-pyrimidin-4-yl]-4-methoxy-benzene-1,3-diamine], the IC50 in data set [1] was 100 nM.

On to `COc1ccccc1-c1cc(Nc2cc(N)c(OC)c(F)c2)ncn1` [Example 88, 5-Fluoro-4-methoxy-N^1-[6-(2-methoxy-phenyl)-pyrimidin-4-yl]-benzene-1,3-diamine], for which the IC50 in data set [1] was more than 400 nM.

`CCOc1cc(F)ccc1-c1cc(Nc2cc(N)c(OC)c(F)c2)ncn1` [Example 89, N^1-[6-(2-Ethoxy-4-fluoro-phenyl)-pyrimidin-4-yl]-5-fluoro-4-methoxy-benzene-1,3-diamine]: the IC50 in data set [1] is more than 400 nM.

On to `COc1cc(F)ccc1-c1cc(Nc2cc(N)c(OC)c(F)c2)ncn1` [Example 90, 5-Fluoro-N^1-[6-(4-fluoro-2-methoxy-phenyl)-pyrimidin-4-yl]-4-methoxy-benzene-1,3-diamine], for which the IC50 in data set [1] was more than 400 nM.

As for `COc1cc(F)c(Nc2cc(-c3ccccc3OC)ncn2)cc1N` [Example 92, 4-Fluoro-6-methoxy-N^3-[6-(2-methoxy-phenyl)-pyrimidin-4-yl]-benzene-1,3-diamine], the IC50 in data set [1] is 250 nM.

`CCOc1ccc(Nc2cc(-c3ccccc3OC)ncn2)cc1N` [Example 101, 4-Ethoxy-N^1-[6-(2-methoxy-phenyl)-pyrimidin-4-yl]-benzene-1,3-diamine]: the IC50 in data set [1] turned out to be 60 nM.

With `CCOc1ccc(Nc2cc(-c3ccc(F)cc3OC)ncn2)cc1N` [Example 105, 4-Ethoxy-N^1-[6-(4-fluoro-2-methoxy-phenyl)-pyrimidin-4-yl]-benzene-1,3-diamine], the IC50 in data set [1] is 16 nM.

As for `COc1ccc(Nc2cc(-c3cc(F)ccc3OC)ncn2)cc1O` [Example 122, 5-[6-(5-Fluoro-2-methoxy-phenyl)-pyrimidin-4-ylamino]-2-methoxy-phenol], the IC50 in data set [1] came to 80 nM.

On to `COc1ccc(Nc2cc(-c3ccc(F)cc3OC)ncn2)cc1O` [Example 123, 5-[6-(4-Fluoro-2-methoxy-phenyl)-pyrimidin-4-ylamino]-2-methoxy-phenol], for which, in data set [1], the IC50 is 50 nM; the “antiviral and antiproliferative activity and cytotoxicity profile (in words)” value was “good antiviral and antiproliferative activity and a good cytotoxicity profile”.

In the case of `CCOc1cc(F)ccc1-c1cc(Nc2ccc(OC)c(C(N)=O)c2)ncn1` [Example 130, 5-[6-(2-Ethoxy-4-fluoro-phenyl)-pyrimidin-4-ylamino]-2-methoxy-benzamide], in data set [1], the IC50 was 16 nM; the “antiviral and antiproliferative activity and cytotoxicity profile (in words)” value was “good antiviral and antiproliferative activity and a good cytotoxicity profile”.

In the case of `CCOc1ccc(F)cc1-c1cc(Nc2ccc(OC)c(C(N)=O)c2)ncn1` [Example 131, 5-[6-(2-Ethoxy-5-fluoro-phenyl)-pyrimidin-4-ylamino]-2-methoxy-benzamide], in data set [1], the IC50 was less than 80 nM; the “antiviral and antiproliferative activity and cytotoxicity profile (in words)” value was “good antiviral and antiproliferative activity and a good cytotoxicity profile”.

As to `COc1ccccc1-c1cc(Nc2ccc(C(N)=O)c(Cl)c2)ncn1` [Example 132, 2-Chloro-4-[6-(2-methoxy-phenyl)-pyrimidin-4-ylamino]-benzamide], the IC50 in data set [1] was found to be 5000 nM.

As for `COC(=O)c1ccc(Nc2cc(-c3ccccc3OC)ncn2)cc1OC` [Example 133, 2-Methoxy-4-[6-(2-methoxy-phenyl)-pyrimidin-4-ylamino]-benzoic Acid Methyl Ester], the IC50 in data set [1] worked out at 7000 nM.

Regarding `COc1ccccc1-c1cc(Nc2cc(F)c(OC)c(C(N)=O)c2)ncn1` [Example 137, 3-Fluoro-2-methoxy-5-[6-(2-methoxy-phenyl)-pyrimidin-4-ylamino]-benzamide], the IC50 in data set [1] was more than 2000 nM.

With `COc1cc(F)ccc1-c1cc(Nc2cc(F)c(OC)c(C(N)=O)c2)ncn1` [Example 138, 3-Fluoro-5-[6-(4-fluoro-2-methoxy-phenyl)-pyrimidin-4-ylamino]-2-methoxy-benzamide], in data set [1], the IC50 is more than 400 nM.

With `CCOc1cc(F)ccc1-c1cc(Nc2cc(F)c(OC)c(C(N)=O)c2)ncn1` [Example 139, 5-[6-(2-Ethoxy-4-fluoro-phenyl)-pyrimidin-4-ylamino]-3-fluoro-2-methoxy-benzamide], the IC50 in data set [1] worked out at 400 nM.

`COc1ccc(F)cc1-c1cc(Nc2cc(F)c(OC)c(C(N)=O)c2)ncn1` [Example 140, 3-Fluoro-5-[6-(5-fluoro-2-methoxy-phenyl)-pyrimidin-4-ylamino]-2-methoxy-benzamide]: the IC50 in data set [1] is more than 400 nM.

Take `CCOc1ccccc1-c1cc(Nc2cc(F)c(OC)c(C(N)=O)c2)ncn1` [Example 141, 5-[6-(2-Ethoxy-phenyl)-pyrimidin-4-ylamino]-3-fluoro-2-methoxy-benzamide]: in data set [1], the IC50 was determined as 80 nM; the “antiviral and antiproliferative activity and cytotoxicity profile (in words)” value is “good antiviral and antiproliferative activity and a good cytotoxicity profile”.

For `CCOc1ccc(F)cc1-c1cc(Nc2cc(C(N)=O)c(OC)cc2F)ncn1` [Example 148, 5-[6-(2-Ethoxy-5-fluoro-phenyl)-pyrimidin-4-ylamino]-4-fluoro-2-methoxy-benzamide], in data set [1], the IC50 is less than 80 nM.
